Structures can show the parent of a compound that is named as a salt.
Columns and labels:
AR F876L = molecular target: T1, AR F876L (Homo sapiens, UniProt P10275, F877L); assay: In cell western of AR protein in 293T AR F876L cells; type: cell-based; settings: AR degradation, 48 hours
T1 construct: expressed in transfected cells; host or cells: 293T AR F876L
T1 sequence (P10275 1-920 F877L): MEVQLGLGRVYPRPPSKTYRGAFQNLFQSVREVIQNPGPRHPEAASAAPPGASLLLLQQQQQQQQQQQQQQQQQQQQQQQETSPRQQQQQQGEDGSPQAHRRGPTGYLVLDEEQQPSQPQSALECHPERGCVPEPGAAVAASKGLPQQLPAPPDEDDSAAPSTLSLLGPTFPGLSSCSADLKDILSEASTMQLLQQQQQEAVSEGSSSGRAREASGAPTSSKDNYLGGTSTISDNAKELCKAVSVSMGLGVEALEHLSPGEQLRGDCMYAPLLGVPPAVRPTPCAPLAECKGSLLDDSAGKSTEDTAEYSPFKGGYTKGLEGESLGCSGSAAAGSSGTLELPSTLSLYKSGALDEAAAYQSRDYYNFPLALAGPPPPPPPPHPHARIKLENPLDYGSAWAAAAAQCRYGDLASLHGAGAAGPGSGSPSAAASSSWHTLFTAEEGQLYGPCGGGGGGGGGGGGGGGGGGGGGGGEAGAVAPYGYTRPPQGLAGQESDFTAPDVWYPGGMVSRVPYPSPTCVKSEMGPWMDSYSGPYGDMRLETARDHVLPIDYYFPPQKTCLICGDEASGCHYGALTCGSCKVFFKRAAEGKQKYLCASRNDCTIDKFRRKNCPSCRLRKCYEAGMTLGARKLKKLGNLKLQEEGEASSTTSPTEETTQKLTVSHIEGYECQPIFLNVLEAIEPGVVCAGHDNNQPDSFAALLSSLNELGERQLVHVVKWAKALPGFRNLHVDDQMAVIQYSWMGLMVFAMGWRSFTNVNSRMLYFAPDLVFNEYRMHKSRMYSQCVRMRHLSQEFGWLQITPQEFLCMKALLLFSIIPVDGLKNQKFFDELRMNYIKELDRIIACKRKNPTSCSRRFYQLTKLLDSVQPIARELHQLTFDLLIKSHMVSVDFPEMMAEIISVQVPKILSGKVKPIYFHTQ
Procedure: Experimental purpose: In this experiment, the effects of compounds WX015, WX016, and WX017 on the expression level of AR protein with point mutation in cell line 293T AR F876L were detected by in cell western assay to evaluate the degradation effect of compounds on proteins with AR F876L point mutation.
The cell line was cultured in a 37° C., 5% CO2 incubator. Regular passage, and cells in logarithmic growth phase were taken for plating.
2. Cell Plating: • 1) Cells were stained with trypan blue and viable cells were counted. • 2) The cell concentration was adjusted to an appropriate concentration with a density of 20000/well. • 3) 90 μL of cell suspension per well was added to a 96-well culture plate, and cell-free culture medium was added to the blank control well. • 4) The culture plate was cultured overnight in a 37° C., 5% CO2 incubator with 100% relative humidity.
3. […]
Relative quantification of the density intensity of immunoblot chemiluminescence bands was performed using Image Studio Ver 5.2 software.

[1] = system: human prostate cancer LNCaP xenograft tumor; assay: In vivo pharmacodynamic study, LNCaP subcutaneous xenograft tumor CB-17 SCID model; set-up: species or system CB-17 SCID mice; settings: WX002 30 mg/kg (D0-D3), 50 mg/kg (D4-D21) p.o. BID
Procedure: Human prostate cancer LNCaP cells (ECACC-89110211) were cultured in vitro in a monolayer under the culture conditions of RPMI-1640 medium with 10% fetal bovine serum, […], and 100 μg/mL streptomycin, and cultured in a 37° C., 5% CO2 incubator.
Routine digestion with trypsin-EDTA was performed twice a week for passaging. When the cell saturation density was 80% to 90% and the number of cells reached the required level, the cells were collected, counted, and inoculated.
CB-17 SCID mice, 6 to 8 weeks old, male, weighing 18 to 22 g.
0.2 mL (1×10^7) of LNCaP cells (with matrix gel, volume ratio of 1:1) were subcutaneously inoculated on the right back of each mouse. The mice were subjected to surgical castration when the average tumor volume reached approximately 80 mm^3, and grouping and administration were initiated when the average tumor volume reached 166 mm^3.
Tumor diameters were measured twice a week with a vernier caliper. The formula for calculating tumor volume was: V=0.5a×b^2, wherein a and b represented the long and short diameters of the tumor, respectively.
The antitumor efficacy of compounds was evaluated by TGI (%). TGI (%) reflected the tumor growth inhibition rate. TGI (0%)=[(1−(average tumor volume at the end of administration in a treatment group−average tumor volume at the beginning of administration in this treatment group))/(average tumor volume at the end of treatment in the vehicle control group−average tumor volume at the beginning of treatment in the vehicle control group)]×100%.

| Structure (SMILES) | DC50 (AR F876L) | Dmax (AR F876L; HEK-293T) | Tumor volume (Day 0) ([1]; Day 0, start of administration) | TGI (Day 21) ([1]; Day 21) | Tumor volume (Day 21) ([1]; Day 21) |
| --- | --- | --- | --- | --- | --- |
| N#Cc1ccc(O[C@H]2CC[C@H](NC(=O)c3ccc(N4CCC(CN5CCN(c6cccc7c6ccc6occ(C8CCC(=O)NC8=O)c67)CC5)CC4)nn3)CC2)cc1Cl (some centres unmarked) [Hydrochloride of WX015] | 0.043 µM | 85% |  |  |  |
| CC1(C)C(=O)N(c2ccc(C#N)c(C(F)(F)F)c2)C(=S)N1c1ccc(OCCN2CCN(CC(=O)Nc3ccc4c(C5CCC(=O)NC5=O)coc4c3)CC2)c(F)c1 (centres unmarked) [WX002] |  |  | 166 ± 18 mm^3 | 89.1% | 219 ± 39 mm^3 |
